Structures are written as SMILES. The source made the active and inactive calls.

The source of these data is ChEMBL document CHEMBL1201862, “PubChem BioAssay data set” (2004).

Holding throughout (assay type): functional
For assay [1], the target named is Dual specificity tyrosine-phosphorylation-regulated kinase 1A (Homo sapiens, UniProt Q13627).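 Further: measured against DYRK1A as one member of a broad kinome profiling panel.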
For assay [2], the target named is Tyrosine-protein kinase ABL1 (Homo sapiens, UniProt P00519).
Another assay concerns the target Aurora kinase B (Homo sapiens, UniProt Q96GD4).
The target in assay [3] is Dual specificity tyrosine-phosphorylation-regulated kinase 1B (Homo sapiens, UniProt Q9Y463). The assay can be described thus: Navigating the Kinome. Panel member name: DYRK1B.
For assay [4], the target named is T1, Tyrosine-protein kinase receptor TYRO3 (Homo sapiens, UniProt Q06418).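 Further: TYRO3 value obtained as one member of a kinome-wide profiling panel.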
T1 sequence (Q06418 whole entry): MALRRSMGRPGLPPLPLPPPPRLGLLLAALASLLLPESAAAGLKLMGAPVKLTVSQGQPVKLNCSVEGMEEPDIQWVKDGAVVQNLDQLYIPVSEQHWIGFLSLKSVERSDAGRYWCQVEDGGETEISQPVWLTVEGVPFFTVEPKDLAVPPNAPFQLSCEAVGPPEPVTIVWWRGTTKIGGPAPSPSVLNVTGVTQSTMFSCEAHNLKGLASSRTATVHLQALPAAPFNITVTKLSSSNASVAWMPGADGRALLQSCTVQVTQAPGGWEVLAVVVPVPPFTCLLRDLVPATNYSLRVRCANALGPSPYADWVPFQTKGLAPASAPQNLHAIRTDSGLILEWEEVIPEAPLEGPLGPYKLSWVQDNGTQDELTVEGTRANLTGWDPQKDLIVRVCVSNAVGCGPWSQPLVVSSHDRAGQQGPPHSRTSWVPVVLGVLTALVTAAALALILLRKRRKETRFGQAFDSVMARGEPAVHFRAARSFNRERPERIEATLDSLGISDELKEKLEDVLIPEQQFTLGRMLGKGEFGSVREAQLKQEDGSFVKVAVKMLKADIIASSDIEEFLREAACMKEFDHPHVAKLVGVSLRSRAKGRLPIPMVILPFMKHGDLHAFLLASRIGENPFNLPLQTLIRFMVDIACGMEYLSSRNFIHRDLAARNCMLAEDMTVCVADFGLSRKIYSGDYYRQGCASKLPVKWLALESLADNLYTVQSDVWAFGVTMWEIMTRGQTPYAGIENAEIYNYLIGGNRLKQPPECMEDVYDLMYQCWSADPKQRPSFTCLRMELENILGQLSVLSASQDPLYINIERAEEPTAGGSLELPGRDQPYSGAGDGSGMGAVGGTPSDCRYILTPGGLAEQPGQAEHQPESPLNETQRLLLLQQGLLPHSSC

The target of assay [5] is ALK tyrosine kinase receptor (Homo sapiens, UniProt Q9UM73).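 Further: ALK tested as one member of a kinase panel screen.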
In assay [6] the target is Macrophage colony-stimulating factor 1 receptor (Homo sapiens, UniProt P07333).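 Further: value comes from the Navigating the Kinome screening panel, CSF1R member.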
Assay [7] concerns the target T2, Serine/threonine-protein kinase Chk1 (Homo sapiens, UniProt O14757).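 Further: measured as one member of a kinome-wide kinase profiling panel.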
T2 sequence (O14757 whole entry): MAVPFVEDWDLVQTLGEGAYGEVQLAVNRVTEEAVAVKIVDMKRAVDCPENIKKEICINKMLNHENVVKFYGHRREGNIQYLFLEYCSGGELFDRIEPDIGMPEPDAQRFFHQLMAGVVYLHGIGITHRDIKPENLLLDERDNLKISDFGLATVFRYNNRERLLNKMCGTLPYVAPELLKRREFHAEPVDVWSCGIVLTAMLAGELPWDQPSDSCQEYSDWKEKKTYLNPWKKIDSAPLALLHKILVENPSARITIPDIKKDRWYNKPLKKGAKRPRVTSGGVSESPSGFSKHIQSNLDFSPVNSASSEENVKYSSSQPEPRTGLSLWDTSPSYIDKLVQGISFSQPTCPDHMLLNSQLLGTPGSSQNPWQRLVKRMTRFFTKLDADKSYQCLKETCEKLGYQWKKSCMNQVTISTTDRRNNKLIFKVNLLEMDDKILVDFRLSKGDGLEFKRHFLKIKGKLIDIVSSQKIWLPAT

The target of assay [8] is cAMP-dependent protein kinase catalytic subunit alpha (Homo sapiens, UniProt P17612).
Assay [9] concerns the target Dual specificity mitogen-activated protein kinase kinase 2 (Homo sapiens, UniProt P36507). The assay can be described thus: Navigating the Kinome. Panel member name: MAP2K2.
In assay [10] the target is T3, Inhibitor of nuclear factor kappa-B kinase subunit epsilon (Homo sapiens, UniProt Q14164).
T3 sequence (Q14164 whole entry): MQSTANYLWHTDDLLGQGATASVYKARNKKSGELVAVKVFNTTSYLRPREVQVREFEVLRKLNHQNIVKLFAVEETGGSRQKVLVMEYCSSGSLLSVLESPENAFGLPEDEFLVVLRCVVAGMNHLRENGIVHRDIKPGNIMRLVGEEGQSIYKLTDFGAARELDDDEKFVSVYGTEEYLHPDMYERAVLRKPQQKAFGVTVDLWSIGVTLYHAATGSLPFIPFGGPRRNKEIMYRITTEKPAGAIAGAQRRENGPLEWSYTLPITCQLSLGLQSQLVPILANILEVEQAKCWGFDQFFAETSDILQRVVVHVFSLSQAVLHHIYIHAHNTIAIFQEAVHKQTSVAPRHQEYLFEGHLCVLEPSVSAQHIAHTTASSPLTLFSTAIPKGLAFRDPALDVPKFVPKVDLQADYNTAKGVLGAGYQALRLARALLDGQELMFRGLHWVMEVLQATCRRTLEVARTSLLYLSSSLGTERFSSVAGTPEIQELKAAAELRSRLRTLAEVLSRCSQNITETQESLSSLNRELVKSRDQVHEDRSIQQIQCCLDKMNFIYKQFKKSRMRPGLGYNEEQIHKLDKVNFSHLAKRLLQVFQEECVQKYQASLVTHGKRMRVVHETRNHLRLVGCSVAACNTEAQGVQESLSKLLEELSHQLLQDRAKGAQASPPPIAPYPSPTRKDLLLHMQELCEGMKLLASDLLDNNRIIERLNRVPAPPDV
The assay can be described thus: Navigating the Kinome. Panel member name: IKBKE.

The target in assay [11] is Protein kinase C theta type (Homo sapiens, UniProt Q04759). The assay can be described thus: Navigating the Kinome. Panel member name: PRKCQ.
In the next assay the target is LIM domain kinase 1 (Homo sapiens, UniProt P53667). The assay can be described thus: Navigating the Kinome. Panel member name: LIMK1.
Assay [12] addresses Glycogen synthase kinase-3 beta (Homo sapiens, UniProt P49841).

Dual specificity mitogen-activated protein kinase kinase 2, sequence (P36507 whole entry): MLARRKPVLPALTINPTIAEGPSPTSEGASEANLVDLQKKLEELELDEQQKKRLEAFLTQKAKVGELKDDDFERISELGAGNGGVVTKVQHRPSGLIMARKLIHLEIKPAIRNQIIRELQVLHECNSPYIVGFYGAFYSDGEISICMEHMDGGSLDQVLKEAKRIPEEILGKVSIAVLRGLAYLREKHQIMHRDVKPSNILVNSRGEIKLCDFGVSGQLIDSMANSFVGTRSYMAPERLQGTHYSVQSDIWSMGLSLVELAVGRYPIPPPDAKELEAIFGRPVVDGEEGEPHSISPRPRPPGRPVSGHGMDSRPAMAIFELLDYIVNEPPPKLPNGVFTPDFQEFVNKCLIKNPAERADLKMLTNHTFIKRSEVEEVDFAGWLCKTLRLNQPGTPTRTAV
Tyrosine-protein kinase ABL1, sequence (P00519 whole entry): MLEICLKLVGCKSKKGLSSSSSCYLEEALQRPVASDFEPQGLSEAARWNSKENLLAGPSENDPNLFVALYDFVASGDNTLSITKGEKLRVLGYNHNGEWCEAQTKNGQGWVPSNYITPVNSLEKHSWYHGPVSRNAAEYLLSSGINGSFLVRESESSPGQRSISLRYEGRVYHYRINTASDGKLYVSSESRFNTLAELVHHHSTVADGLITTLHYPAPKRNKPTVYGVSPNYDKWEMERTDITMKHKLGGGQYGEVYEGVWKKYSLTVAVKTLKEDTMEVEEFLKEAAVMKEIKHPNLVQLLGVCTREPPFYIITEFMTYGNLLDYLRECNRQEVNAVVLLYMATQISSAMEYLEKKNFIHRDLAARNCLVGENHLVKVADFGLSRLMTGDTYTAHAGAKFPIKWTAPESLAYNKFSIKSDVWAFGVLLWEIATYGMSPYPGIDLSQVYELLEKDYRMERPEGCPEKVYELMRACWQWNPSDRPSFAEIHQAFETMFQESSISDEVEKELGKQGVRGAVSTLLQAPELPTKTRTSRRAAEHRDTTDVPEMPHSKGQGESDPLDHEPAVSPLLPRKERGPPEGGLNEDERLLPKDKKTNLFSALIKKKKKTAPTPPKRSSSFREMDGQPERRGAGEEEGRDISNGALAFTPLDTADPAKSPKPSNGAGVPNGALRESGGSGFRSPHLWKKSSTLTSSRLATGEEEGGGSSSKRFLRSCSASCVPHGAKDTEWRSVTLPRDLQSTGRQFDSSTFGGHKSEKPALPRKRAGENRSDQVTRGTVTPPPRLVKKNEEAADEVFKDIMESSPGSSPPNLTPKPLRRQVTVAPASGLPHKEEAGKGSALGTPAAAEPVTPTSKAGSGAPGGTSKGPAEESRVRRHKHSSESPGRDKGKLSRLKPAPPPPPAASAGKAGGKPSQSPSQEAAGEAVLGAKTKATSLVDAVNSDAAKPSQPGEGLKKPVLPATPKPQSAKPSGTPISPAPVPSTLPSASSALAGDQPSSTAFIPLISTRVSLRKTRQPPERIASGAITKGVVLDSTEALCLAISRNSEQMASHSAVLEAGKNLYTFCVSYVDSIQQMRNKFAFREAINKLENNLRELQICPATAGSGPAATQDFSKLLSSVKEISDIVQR
Aurora kinase B, sequence (Q96GD4 whole entry): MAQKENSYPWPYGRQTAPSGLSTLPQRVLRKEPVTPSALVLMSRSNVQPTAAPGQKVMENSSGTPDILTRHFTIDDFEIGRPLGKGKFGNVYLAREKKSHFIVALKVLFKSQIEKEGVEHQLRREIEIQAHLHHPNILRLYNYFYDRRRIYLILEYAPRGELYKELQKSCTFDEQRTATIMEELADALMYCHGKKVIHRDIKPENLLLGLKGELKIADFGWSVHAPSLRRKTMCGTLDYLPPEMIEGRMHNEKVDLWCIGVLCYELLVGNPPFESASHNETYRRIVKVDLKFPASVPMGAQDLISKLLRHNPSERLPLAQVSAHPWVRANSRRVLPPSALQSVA
Glycogen synthase kinase-3 beta, sequence (P49841 whole entry): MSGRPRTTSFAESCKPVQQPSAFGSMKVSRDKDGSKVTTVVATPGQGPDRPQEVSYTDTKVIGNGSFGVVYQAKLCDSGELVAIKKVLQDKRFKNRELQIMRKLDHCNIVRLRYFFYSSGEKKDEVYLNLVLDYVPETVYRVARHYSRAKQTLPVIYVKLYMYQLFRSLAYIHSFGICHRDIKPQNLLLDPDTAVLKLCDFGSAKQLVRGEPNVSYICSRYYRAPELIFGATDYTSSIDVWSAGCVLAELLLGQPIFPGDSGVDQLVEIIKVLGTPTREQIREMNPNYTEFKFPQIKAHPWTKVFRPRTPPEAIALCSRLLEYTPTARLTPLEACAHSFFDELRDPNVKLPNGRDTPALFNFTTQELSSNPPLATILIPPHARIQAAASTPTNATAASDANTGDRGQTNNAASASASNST
Macrophage colony-stimulating factor 1 receptor, sequence (P07333 whole entry): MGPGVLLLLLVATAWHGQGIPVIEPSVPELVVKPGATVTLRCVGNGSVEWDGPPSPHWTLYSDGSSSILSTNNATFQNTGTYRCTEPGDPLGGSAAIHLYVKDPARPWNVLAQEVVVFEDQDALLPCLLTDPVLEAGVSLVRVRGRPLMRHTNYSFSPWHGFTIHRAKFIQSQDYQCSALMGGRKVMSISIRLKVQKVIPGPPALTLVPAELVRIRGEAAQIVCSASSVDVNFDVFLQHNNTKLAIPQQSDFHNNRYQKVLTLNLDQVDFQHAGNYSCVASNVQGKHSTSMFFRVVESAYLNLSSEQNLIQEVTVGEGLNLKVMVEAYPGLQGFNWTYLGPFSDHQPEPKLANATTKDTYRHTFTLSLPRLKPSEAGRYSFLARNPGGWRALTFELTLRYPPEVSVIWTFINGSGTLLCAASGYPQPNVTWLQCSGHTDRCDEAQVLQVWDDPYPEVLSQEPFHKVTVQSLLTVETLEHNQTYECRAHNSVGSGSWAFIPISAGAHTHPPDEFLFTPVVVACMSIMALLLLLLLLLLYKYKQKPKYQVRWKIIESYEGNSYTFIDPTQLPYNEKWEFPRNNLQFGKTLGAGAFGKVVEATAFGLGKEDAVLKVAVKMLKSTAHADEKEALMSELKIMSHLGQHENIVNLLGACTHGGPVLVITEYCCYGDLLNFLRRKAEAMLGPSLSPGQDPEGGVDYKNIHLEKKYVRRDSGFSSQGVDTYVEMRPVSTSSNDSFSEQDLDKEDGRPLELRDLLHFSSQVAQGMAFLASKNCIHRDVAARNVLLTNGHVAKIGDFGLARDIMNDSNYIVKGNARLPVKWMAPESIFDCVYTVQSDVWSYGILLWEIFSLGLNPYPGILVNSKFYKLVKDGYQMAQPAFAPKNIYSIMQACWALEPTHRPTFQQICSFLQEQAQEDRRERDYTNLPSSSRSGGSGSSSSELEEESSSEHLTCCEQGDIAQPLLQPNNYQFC
Dual specificity tyrosine-phosphorylation-regulated kinase 1B, sequence (Q9Y463 whole entry): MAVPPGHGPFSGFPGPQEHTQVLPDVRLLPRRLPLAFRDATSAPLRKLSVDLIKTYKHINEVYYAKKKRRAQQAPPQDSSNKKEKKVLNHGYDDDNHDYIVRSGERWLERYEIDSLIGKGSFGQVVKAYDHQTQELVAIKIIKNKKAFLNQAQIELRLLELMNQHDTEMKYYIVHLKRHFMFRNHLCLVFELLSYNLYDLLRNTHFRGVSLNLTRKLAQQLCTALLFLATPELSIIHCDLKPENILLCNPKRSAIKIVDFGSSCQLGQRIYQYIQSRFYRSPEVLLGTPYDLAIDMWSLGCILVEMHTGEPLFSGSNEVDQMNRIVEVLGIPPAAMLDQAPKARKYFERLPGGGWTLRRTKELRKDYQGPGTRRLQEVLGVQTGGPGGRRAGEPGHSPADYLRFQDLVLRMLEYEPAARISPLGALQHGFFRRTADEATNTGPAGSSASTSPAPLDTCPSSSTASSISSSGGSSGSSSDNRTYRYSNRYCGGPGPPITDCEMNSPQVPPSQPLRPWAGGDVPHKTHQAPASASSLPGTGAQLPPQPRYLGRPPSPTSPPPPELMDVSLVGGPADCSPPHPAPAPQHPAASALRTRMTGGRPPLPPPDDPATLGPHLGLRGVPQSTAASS
Protein kinase C theta type, sequence (Q04759 whole entry, the tested form may be a part): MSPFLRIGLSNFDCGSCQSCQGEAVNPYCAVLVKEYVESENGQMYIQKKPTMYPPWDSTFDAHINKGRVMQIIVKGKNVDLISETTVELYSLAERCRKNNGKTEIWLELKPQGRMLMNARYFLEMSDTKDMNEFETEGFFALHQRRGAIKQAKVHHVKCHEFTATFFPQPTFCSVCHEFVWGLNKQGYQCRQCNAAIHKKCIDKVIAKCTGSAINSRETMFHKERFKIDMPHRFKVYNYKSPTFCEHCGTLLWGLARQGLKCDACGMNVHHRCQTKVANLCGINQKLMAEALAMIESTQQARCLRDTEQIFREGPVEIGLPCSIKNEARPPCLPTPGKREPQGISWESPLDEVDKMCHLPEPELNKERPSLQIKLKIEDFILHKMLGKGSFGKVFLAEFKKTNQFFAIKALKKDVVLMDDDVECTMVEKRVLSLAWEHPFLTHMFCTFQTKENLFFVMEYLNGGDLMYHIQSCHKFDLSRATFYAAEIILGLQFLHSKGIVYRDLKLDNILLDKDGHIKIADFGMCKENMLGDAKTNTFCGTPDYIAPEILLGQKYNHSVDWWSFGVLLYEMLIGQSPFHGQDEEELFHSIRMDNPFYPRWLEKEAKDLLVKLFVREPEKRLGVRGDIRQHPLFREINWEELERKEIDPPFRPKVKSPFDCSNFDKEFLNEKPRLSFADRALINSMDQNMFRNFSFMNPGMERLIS

For `O=C1Nc2cc(-c3ccc(O)cc3)ccc2C1=Cc1ccc[nH]1`, the Ki is > 2000 nM (inactive) in assay [1]; 50.1 nM (active) in assay [2]; 20 nM (active) on Aurora kinase B; 398 nM (active) in [3]; 2000 nM (active) in [4]; 12.6 nM (active) in assay [5]. Further, the Ki was 1260 nM (active) in [6]; 20 nM (active) in assay [7]; > 1260 nM (inactive) in [8]; > 3980 nM (inactive) in assay [9]; > 3160 nM (inactive) in assay [10]; 316 nM (active) in assay [11]. In addition, the Ki on LIM domain kinase 1 was 2510 nM (active); in assay [12], 501 nM (active).

`NC(COc1cncc(-c2ccc3c(c2)C(=Cc2ccc[nH]2)C(=O)N3)c1)Cc1ccccc1` (configuration not stated): the Ki in assay [1] is 0.398 nM (active); in [2], 63.1 nM (active); at Aurora kinase B, 39.8 nM (active); in assay [3] it was 1 nM (active); in assay [4], 25.1 nM (active); in assay [5], 200 nM (active). For the same compound, the Ki in assay [6] was 631 nM (active); in assay [7] it was 251 nM (active); in assay [8], 1.26 nM (active); in assay [9] it was 316 nM (active); in assay [10], 20 nM (active); in assay [11] it was 3.98 nM (active). The Ki on LIM domain kinase 1 was 501 nM (active); in [12], 2.51 nM (active).

Regarding `O=C1Cc2cc(-c3ccccc3)cnc2N1`, the Ki in [1] is 39800 nM (active); in [2] it was 79400 nM (active); on Aurora kinase B it was 31600 nM (active); in assay [3], 50100 nM (active); in [4], 20000 nM (active); in assay [5], 63100 nM (active). Also, the Ki in [6] was 63100 nM (active); in assay [7] it was 3980 nM (active); in [8] it was > 50100 nM (inactive); in [9], 50100 nM (active); in [10], 100000 nM (active); in assay [11], 63100 nM (active). For the same compound, the inhibition constant (Ki) at LIM domain kinase 1 is 63100 nM (active); in assay [12], 15800 nM (active).
